According to patent US20020072081A1, “Geranylgeranyl transferase inhibitor screening assay” (priority 2000, published 2002):

Molecular target: T1, GGTase-I (Rattus norvegicus, UniProt P53610)
T1 construct: endogenous in cells; host or cells: H-ras transformed Rat1 fibroblast cell line (Hras2b/rat1)
Assay: Cell Radiotracer Assay of Geranylgeranyl Transferase Inhibitor (CRAGGTI), radioligand binding to living cells
Details: H-ras transformed Rat1 fibroblast cell line; specific binding, non-specific determined with 1000-fold molar excess of unlabeled Compound A; read-out: concentration of [^3H] Compound A that achieves half maximal binding to cells (apparent Kd)
Description: In an embodiment of the instant invention, the assay involves growing a cell line in 24-well cell culture plates as an adherent population of cells until the cell culture is nearly confluent. The concentration of radioligand required to achieve half-maximal specific binding to cells is determined by adding the radioligand at varying concentrations to cell culture media, and incubating this mixture with the cells for a defined period of time. To determine the level of non-specific binding of the radioligand, excess unlabeled GGTase-I inhibitor (unlabeled radioligand) is added to some of the wells. After incubation, the unbound radioligand is removed from the cells. […] The cell layer is then solubilized and analyzed. Having determined the concentration of radioligand that achieves half maximal binding to cells, one can determine the relative IC50s of test compounds by incubating varying concentrations of test compounds with the appropriate concentration of radioligand, and perform the cell incubations, washes, and solubilization steps as described. […]
Briefly, the method involves growing a cell line in 24-well cell culture plates as an adherent population of cells until the cell culture is nearly confluent. […] Compound A required to achieve half-maximal specific binding to cells is determined by adding [^3H] […] Having determined the concentration of [^3H] […]

Kd: ~0.3 nM
Structure (SMILES): [3H]C(O)(CN1CCN(Cc2cncn2Cc2ccc(C#N)cc2)CC1=O)C12CC3CC(CC(C3)C1)C2 (stereo not shown) [[^3H] Compound A, [^3H]-R/S 1-(4-Cyanobenzyl)-5-[1-(2-hydroxy-2-(adamant-1-yl)ethyl)-2-oxo-piperazin-4-vl-methyl]imidazole]
